What all share (assay type): cell-based
Test [1] relates to Enterococcus faecium ATCC 700221 (VRE). In words: Broth microdilution MIC, E. faecium ATCC 700221 (VRE). The conditions noted are these: Enterococcus faecium, broth microdilution, 37° C., 20 hours. A digest of the protocol:
(§1)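 Two-fold dilutions from 64 to 0.0625 μg/ml final, 1% DMSO, were inoculated at ~5.0×10^5 cfu/ml in the strain's test medium and kept 20 h at 37 °C in ambient atmosphere. Colonies were grown on MHA, with S. pneumoniae on blood agar under 5% CO2.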
(Dilution methods test growth across graded concentrations, often in twofold steps.)

Test [2] deals with Escherichia coli ATCC 25922. Put plainly: Broth microdilution MIC, E. coli ATCC 25922 (MHIIB w & w/o 4 mM EDTA). As to conditions: broth microdilution, 37° C., 20 hours; for MIC: Escherichia coli, ATCC25922, without EDTA, read-out: MIC E. coli ATCC 25922; for MIC E. coli ATCC 25922 + 4 mM EDTA: with 4 mM EDTA. A digest of the protocol:
as §1

For test [3], the system named is Staphylococcus aureus NRS384 (MRSA). Put plainly: Broth microdilution MIC, S. aureus NRS384 (MRSA). The conditions noted are these: Staphylococcus aureus, broth microdilution, 37° C., 20 hours. A digest of the protocol: as §1
The subject of test [4] is Staphylococcus aureus ATCC 29213 (MSSA). Put plainly: Broth microdilution MIC, S. aureus ATCC 29213 (MSSA). As to conditions: broth microdilution, 37° C., 20 hours, read-out: MIC S. aureus ATCC 29213 (MSSA). A digest of the protocol:
as §1

Test [5] deals with Enterococcus faecalis ATCC 29212. In words: Broth microdilution MIC, E. faecalis ATCC 29212. As to conditions: ATCC29212, broth microdilution, 37° C., 20 hours, read-out: MIC E. faecalis ATCC 29212. An outline of the steps:
as §1

For test [6], the system named is Bacillus subtilis ATCC 6633. In words: Broth microdilution MIC, B. subtilis ATCC 6633. As to conditions: ATCC6633, broth microdilution, 37° C., 20 hours, read-out: MIC B. subtilis ATCC 6633. An outline of the steps: as §1
In test [7] the test system is Streptococcus pneumoniae ATCC 49619. In words: Broth microdilution MIC, S. pneumoniae ATCC 49619. The conditions noted are these: ATCC49619, broth microdilution, 37° C., 20 hours, read-out: MIC S. pneumoniae ATCC 49619. A digest of the protocol: as §1
The mark [8] stands for this setting: read-out: MIC E. faecium ATCC 700221 (VRE).
Setting [9] is: S. aureus NRS 384, read-out: MIC NRS 384 (MRSA).

Each structure is given as a SMILES string. Converted amounts (≈) assume the structure as drawn. Where two headings read alike, the source gives them in different places.

For `O=c1[nH]c(NCc2ccc(Cl)c(Cl)c2)nc2c(Cl)nn(Cc3cocn3)c12` [Compound 307, 3-Chloro-5-((3,4-dichlorobenzyl)amino)-1-(oxazol-4-ylmethyl)-1H-pyrazolo[4,3-d]pyrimidin-7(6H)-one], the MIC in test [1] (setting [8]) was 1 µg/mL (≈ 2.35 µM); in test [1] (MHIIB, read-out: MIC against E. faecium ATCC 700221 (VRE)), ≤ 1 µg/mL; in test [2], > 64 µg/mL; in test [3] (setting [9]) it was 1 µg/mL (≈ 2.35 µM); in test [3] (MHIIB, read-out: MIC against S. aureus NRS 384 (MRSA)), ≤ 1 µg/mL; in test [4], 1 µg/mL (≈ 2.35 µM). Further, the MIC in test [5] turned out to be 2 µg/mL (≈ 4.7 µM); in test [6] it was 0.5 µg/mL (≈ 1.17 µM); in test [7], 4 µg/mL (≈ 9.4 µM). The “MIC E. coli ATCC 25922 + 4 mM EDTA” value in test [2] is >64 µg/mL.

In the case of `COCCn1nc(F)c2nc(NCc3ccc(F)c(F)c3)[nH]c(=O)c21` [Compound 308, 5-((3,4-Difluorobenzyl)amino)-3-fluoro-1-(2-methoxyethyl)-1H-pyrazolo[4,3-d]pyrimidin-7(6H)-one], the MIC in test [1] (setting [8]) is 4 µg/mL (≈ 11.3 µM); in test [2], > 64 µg/mL; in test [3] (setting [9]), 4 µg/mL (≈ 11.3 µM); in test [4] it was 4 µg/mL (≈ 11.3 µM); in test [5], 8 µg/mL (≈ 22.6 µM); in test [6], 2 µg/mL (≈ 5.66 µM). Further, the MIC in test [7] came to 4 µg/mL (≈ 11.3 µM). For the same compound, the “MIC E. coli ATCC 25922 + 4 mM EDTA” value in test [2] is >64 µg/mL.

Turning to `O=c1[nH]c(NCc2ccc(F)c(F)c2)nc2c(Cl)nn(CCOCCO)c12` [Compound 309, 3-Chloro-5-[(3,4-difluorophenyl)methylamino]-1-[2-(2-hydroxyethoxy)ethyl]-6H-pyrazolo[4,3-d]pyrimidin-7-one], the MIC was 16 µg/mL (≈ 40 µM) in test [1] (setting [8]); > 64 µg/mL in test [2]; 16 µg/mL (≈ 40 µM) in test [3] (setting [9]); 16 µg/mL (≈ 40 µM) in test [4]; 32 µg/mL (≈ 80 µM) in test [5]; 8 µg/mL (≈ 20 µM) in test [6]. In addition, the MIC in test [7] came out at 8 µg/mL (≈ 20 µM). For the same compound, in test [2], the “MIC E. coli ATCC 25922 + 4 mM EDTA” value is >64 µg/mL.

Consider `Cc1cc(CNc2nc3c(F)nn(CCOCCO)c3c(=O)[nH]2)ccc1F` [Compound 311, 3-Fluoro-5-((4-fluoro-3-methylbenzyl)amino)-1-(2-(2-hydroxyethoxy)ethyl)-1H-pyrazolo[4,3-d]pyrimidin-7(6H)-one], for which the MIC is 16 µg/mL (≈ 42.2 µM) in test [1] (setting [8]); > 64 µg/mL in test [2]; 16 µg/mL (≈ 42.2 µM) in test [3] (setting [9]); 16 µg/mL (≈ 42.2 µM) in test [4]; 16 µg/mL (≈ 42.2 µM) in test [5]; 8 µg/mL (≈ 21.1 µM) in test [6]. The MIC in test [7] is 32 µg/mL (≈ 84.4 µM). The “MIC E. coli ATCC 25922 + 4 mM EDTA” value in test [2] was >64 µg/mL.

`Cc1ccc(CNc2nc3c(F)nn(CCOCCO)c3c(=O)[nH]2)cc1F` [Compound 313, 3-Fluoro-5-((3-fluoro-4-methylbenzyl)amino)-1-(2-(2-hydroxyethoxy)ethyl)-1H-pyrazolo[4,3-d]pyrimidin-7(6H)-one]: the MIC in test [1] (setting [8]) was 8 µg/mL (≈ 21.1 µM); in test [2], > 64 µg/mL; in test [3] (setting [9]), 16 µg/mL (≈ 42.2 µM); in test [4] it was 8 µg/mL (≈ 21.1 µM); in test [5], 16 µg/mL (≈ 42.2 µM); in test [6] it was 2 µg/mL (≈ 5.27 µM). Further, in test [7], the MIC was 8 µg/mL (≈ 21.1 µM). In addition, in test [2], the “MIC E. coli ATCC 25922 + 4 mM EDTA” value was >64 µg/mL.

Turning to `CP(C)(=O)CCCCn1nc(F)c2nc(NCc3ccc(F)c(F)c3)[nH]c(=O)c21` [Compound 314, 5-[(3,4-Difluorophenyl)methylamino]-1-(4-dimethylphosphorylbutyl)-3-fluoro-6H-pyrazolo[4,3-d]pyrimidin-7-one], the MIC is 32 µg/mL (≈ 74.9 µM) in test [1] (setting [8]); > 64 µg/mL in test [2]; 32 µg/mL (≈ 74.9 µM) in test [3] (setting [9]); 64 µg/mL (≈ 150 µM) in test [4]; > 64 µg/mL in test [5]; 16 µg/mL (≈ 37.4 µM) in test [6]. Also, the MIC in test [7] was 16 µg/mL (≈ 37.4 µM). In addition, the “MIC E. coli ATCC 25922 + 4 mM EDTA” value in test [2] is >64 µg/mL.

Regarding `O=c1[nH]c(NCc2ccc(F)c(F)c2)nc2c(F)nn(CC3CCO3)c12` (centres unmarked) [Compound 315, 5-[(3,4-difluorophenyl)methylamino]-3-fluoro-1-(oxetan-2-ylmethyl)-6H-pyrazolo[4,3-d]pyrimidin-7-one], the MIC in test [1] (setting [8]) is 2 µg/mL (≈ 5.47 µM); in test [2], > 64 µg/mL; in test [3] (setting [9]) it was 4 µg/mL (≈ 10.9 µM); in test [4], 4 µg/mL (≈ 10.9 µM); in test [5] it was 8 µg/mL (≈ 21.9 µM); in test [6], 1 µg/mL (≈ 2.74 µM). Besides, the MIC in test [7] came out at 2 µg/mL (≈ 5.47 µM). Further, in test [2], the “MIC E. coli ATCC 25922 + 4 mM EDTA” value was >64 µg/mL.

`O=c1[nH]c(NCc2ccc(F)c(F)c2)nc2c(F)nn(Cc3cocn3)c12` [Compound 316, 5-((3,4-Difluorobenzyl)amino)-3-fluoro-1-(oxazol-4-ylmethyl)-1H-pyrazolo[4,3-d]pyrimidin-7(6H)-one]: the MIC in test [1] (setting [8]) was 4 µg/mL (≈ 10.6 µM); in test [2], > 64 µg/mL; in test [3] (setting [9]) it was 2 µg/mL (≈ 5.31 µM); in test [4], 4 µg/mL (≈ 10.6 µM); in test [5] it was 8 µg/mL (≈ 21.3 µM); in test [6] it was 2 µg/mL (≈ 5.31 µM). Also, in test [7], the MIC amounted to 2 µg/mL (≈ 5.31 µM). In test [2], the “MIC E. coli ATCC 25922 + 4 mM EDTA” value is >64 µg/mL.

For the compound `O=C(c1cccnc1)N1CCC(n2nc(F)c3nc(NCc4ccc(Cl)c(Cl)c4)[nH]c(=O)c32)CC1` [Compound 317, 5-[(3,4-Dichlorophenyl)methylamino]-3-fluoro-1-[1-(pyridine-3-carbonyl)-4-piperidyl]-6H-pyrazolo[4,3-d]pyrimidin-7-one], the MIC in test [1] (setting [8]) is 2 µg/mL (≈ 3.87 µM); in test [2], > 64 µg/mL; in test [3] (setting [9]), 4 µg/mL (≈ 7.75 µM); in test [4], 4 µg/mL (≈ 7.75 µM); in test [5] it was 4 µg/mL (≈ 7.75 µM); in test [6], 1 µg/mL (≈ 1.94 µM). Moreover, the MIC in test [7] was 4 µg/mL (≈ 7.75 µM). Also, the “MIC E. coli ATCC 25922 + 4 mM EDTA” value in test [2] is >64 µg/mL.

For `O=C(c1cccnc1)N1CCC(n2nc(Cl)c3nc(NCc4ccc(Cl)c(Cl)c4)[nH]c(=O)c32)CC1` [Compound 318, 3-Chloro-5-[(3,4-dichlorophenyl)methylamino]-1-[1-(pyridine-3-carbonyl)-4-piperidyl]-6H-pyrazolo[4,3-d]pyrimidin-7-one], the MIC in test [1] (setting [8]) was 1 µg/mL (≈ 1.88 µM); in test [2], > 64 µg/mL; in test [3] (setting [9]), 2 µg/mL (≈ 3.75 µM); in test [4] it was 2 µg/mL (≈ 3.75 µM); in test [5], 2 µg/mL (≈ 3.75 µM); in test [6], 1 µg/mL (≈ 1.88 µM). In addition, in test [7], the MIC was 4 µg/mL (≈ 7.51 µM). Moreover, in test [2], the “MIC E. coli ATCC 25922 + 4 mM EDTA” value is >64 µg/mL.

As to `Cl.O=C(c1ccncc1)N1CCC(n2nc(F)c3nc(NCc4ccc(F)c(F)c4)[nH]c(=O)c32)CC1` [Compound 319, 5-((3,4-difluorobenzyl)amino)-3-fluoro-1-(1-isonicotinoylpiperidin-4-yl)-1H-pyrazolo[4,3-d]pyrimidin-7(6H)-one hydrochloride], the minimal inhibitory concentration (MIC) in test [1] (setting [8]) was 4 µg/mL; in test [2] it was > 64 µg/mL; in test [3] (setting [9]), 8 µg/mL; in test [4], 8 µg/mL; in test [5], 8 µg/mL; in test [6], 2 µg/mL. Moreover, the minimal inhibitory concentration (MIC) in test [7] stood at 4 µg/mL. Besides, the “MIC E. coli ATCC 25922 + 4 mM EDTA” value in test [2] was >64 µg/mL.

Regarding `O=c1c2c(cnn2CCOCCO)nc(NCc2ccc(Cl)c(Cl)c2)n1COP(=O)(O)O` [Compound 320, (5-((3,4-dichlorobenzyl)amino)-1-(2-(2-hydroxyethoxy)ethyl)-7-oxo-1H-pyrazolo[4,3-d]pyrimidin-6(7H)-yl)methyl dihydrogen phosphate], the MIC in test [1] (setting [8]), in test [2], in test [3] (setting [9]), in test [4], in test [5] and in test [6] was > 64 µg/mL each time. Further, in test [7], the MIC is > 64 µg/mL. Further, the “MIC E. coli ATCC 25922 + 4 mM EDTA” value in test [2] was >64 µg/mL.

One may read the MIC as the smallest concentration in the dilution series that meets the test's criterion for growth inhibition.

The record behind these values is patent US10723741B1, “DNA polymerase IIIC inhibitors and use thereof” (Acurx Pharmaceuticals, LLC, priority 2018, dated 2020).
